Assay results published in PubChem BioAssay AID1919017 (Molecular Pharmacology Branch, DTP, NCI, 2023).

Tested on: SW1271 complex spheroids with HUVEC/MSC, growth, % test/control
Test: Anticancer human tumor SW1271 cell line growth inhibition [AhR];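 note: spheroids exposed to agents for 7 days before readout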
Details: for IC50: curve of first compound; for viability, T/C: stronger effect = lower value
How it was run: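 Agents were dosed in half-log steps down from roughly clinical Cmax, or from 10 microM where Cmax was unknown, alone and with AhR antagonists. Read-out: percent test/control growth of tumor spheroids containing HUVEC and MSC stromal cells.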

`O=C(C=Cn1cnc(-c2cc(C(F)(F)F)cc(C(F)(F)F)c2)n1)NNc1cnccn1` + Cc1cncc(-c2nc(NCCc3c[nH]c4ccccc34)c3ncn(C(C)C)c3n2)c1 showed an IC50 (second compound 0.1 µM) of 913 nM, an IC50 (second compound 0.316 µM) of 2330 nM and an IC50 (second compound 1 µM) of 2470 nM. For the same compound, the IC50 (second compound 3.16 µM) was greater than 3000 nM, the IC50 (second compound 10 µM) was less than 9.49 nM and the viability, T/C (second compound 0.1 µM, first compound 0.00949 µM) was 83.3%. For the same compound, the viability, T/C (second compound 0.1 µM, first compound 0.03 µM) was 103%, the viability, T/C (second compound 0.1 µM, first compound 0.0949 µM) was 87.1% and the viability, T/C (second compound 0.1 µM, first compound 0.3 µM) was 82.4%. The viability, T/C (second compound 0.1 µM, first compound 0.949 µM) was 48.6%, the viability, T/C (second compound 0.1 µM, first compound 3 µM) was 44.6% and the viability, T/C (second compound 0.316 µM, first compound 0.00949 µM) was 88.2%. The viability, T/C (second compound 0.316 µM, first compound 0.03 µM) was 91.9%, the viability, T/C (second compound 0.316 µM, first compound 0.0949 µM) was 88% and the viability, T/C (second compound 0.316 µM, first compound 0.3 µM) was 74.5%. It also gave a viability, T/C (second compound 0.316 µM, first compound 0.949 µM) of 65.9%, a viability, T/C (second compound 0.316 µM, first compound 3 µM) of 45.6% and a viability, T/C (second compound 1 µM, first compound 0.00949 µM) of 105%. For the same compound, the viability, T/C (second compound 1 µM, first compound 0.03 µM) was 96.6%, the viability, T/C (second compound 1 µM, first compound 0.0949 µM) was 97.7% and the viability, T/C (second compound 1 µM, first compound 0.3 µM) was 72.2%. For the same compound, the viability, T/C (second compound 1 µM, first compound 0.949 µM) was 62.8%, the viability, T/C (second compound 1 µM, first compound 3 µM) was 47% and the viability, T/C (second compound 3.16 µM, first compound 0.00949 µM) was 97.7%. It also gave a viability, T/C (second compound 3.16 µM, first compound 0.03 µM) of 88.2%, a viability, T/C (second compound 3.16 µM, first compound 0.0949 µM) of 97.5% and a viability, T/C (second compound 3.16 µM, first compound 0.3 µM) of 87.7%. The viability, T/C (second compound 3.16 µM, first compound 0.949 µM) was 67.7%, the viability, T/C (second compound 3.16 µM, first compound 3 µM) was 53.2% and the viability, T/C (second compound 10 µM, first compound 0.00949 µM) was 44.4%. For the same compound, the viability, T/C (second compound 10 µM, first compound 0.03 µM) was 48.4%, the viability, T/C (second compound 10 µM, first compound 0.0949 µM) was 55% and the viability, T/C (second compound 10 µM, first compound 0.3 µM) was 59.3%. For the same compound, the viability, T/C (second compound 10 µM, first compound 0.949 µM) was 50.1% and the viability, T/C (second compound 10 µM, first compound 3 µM) was 47.7%.
With `NS(=O)(=O)OCC1CC(n2ccc3c(NC4CCc5ccccc54)ncnc32)CC1O` (stereo not given) + Cc1ccccc1N=Nc1ccc(NC(=O)c2ccnn2C)c(C)c1 the IC50 (second compound 0.1 µM) was greater than 10000 nM, the IC50 (second compound 0.316 µM) was greater than 10000 nM and the IC50 (second compound 1 µM) was greater than 10000 nM. For the same compound, the IC50 (second compound 3.16 µM) was greater than 10000 nM, the IC50 (second compound 10 µM) was greater than 10000 nM and the viability, T/C (second compound 0.1 µM, first compound 0.0316 µM) was 129%. For the same compound, the viability, T/C (second compound 0.1 µM, first compound 0.1 µM) was 161%, the viability, T/C (second compound 0.1 µM, first compound 0.316 µM) was 118% and the viability, T/C (second compound 0.1 µM, first compound 1 µM) was 101%. The viability, T/C (second compound 0.1 µM, first compound 3.16 µM) was 91.2%, the viability, T/C (second compound 0.1 µM, first compound 10 µM) was 82.5% and the viability, T/C (second compound 0.316 µM, first compound 0.0316 µM) was 135%. For the same compound, the viability, T/C (second compound 0.316 µM, first compound 0.1 µM) was 165%, the viability, T/C (second compound 0.316 µM, first compound 0.316 µM) was 112% and the viability, T/C (second compound 0.316 µM, first compound 1 µM) was 95.9%. For the same compound, the viability, T/C (second compound 0.316 µM, first compound 3.16 µM) was 103%, the viability, T/C (second compound 0.316 µM, first compound 10 µM) was 86.3% and the viability, T/C (second compound 1 µM, first compound 0.0316 µM) was 157%. For the same compound, the viability, T/C (second compound 1 µM, first compound 0.1 µM) was 132%, the viability, T/C (second compound 1 µM, first compound 0.316 µM) was 151% and the viability, T/C (second compound 1 µM, first compound 1 µM) was 88.2%. For the same compound, the viability, T/C (second compound 1 µM, first compound 3.16 µM) was 80.1%, the viability, T/C (second compound 1 µM, first compound 10 µM) was 78.5% and the viability, T/C (second compound 3.16 µM, first compound 0.0316 µM) was 157%. The viability, T/C (second compound 3.16 µM, first compound 0.1 µM) was 206%, the viability, T/C (second compound 3.16 µM, first compound 0.316 µM) was 111% and the viability, T/C (second compound 3.16 µM, first compound 1 µM) was 89.7%. It also gave a viability, T/C (second compound 3.16 µM, first compound 3.16 µM) of 89.1%, a viability, T/C (second compound 3.16 µM, first compound 10 µM) of 83.2% and a viability, T/C (second compound 10 µM, first compound 0.0316 µM) of 128%. For the same compound, the viability, T/C (second compound 10 µM, first compound 0.1 µM) was 132%, the viability, T/C (second compound 10 µM, first compound 0.316 µM) was 123% and the viability, T/C (second compound 10 µM, first compound 1 µM) was 94%. For the same compound, the viability, T/C (second compound 10 µM, first compound 3.16 µM) was 77.4% and the viability, T/C (second compound 10 µM, first compound 10 µM) was 84.9%.
